Residues, ends and D or L forms follow the SMILES beside them.

The assay concerns the target T1, angiotensin converting enzyme (ACE) (Homo sapiens, UniProt P12821).
T1 construct: purchased Dojindo Inc., Kumamoto, Japan ACE kit-WST
The assay can be described thus: ACE inhibitory activity, colorimetric detection system (ACE kit-WST). It is filed as biochemical. The following applies: synthetic peptides; mean ± SD, n = 3; read-out: IC50 (μM) for ACE of corresponding synthetic peptides. How it is done: The ACE inhibitory activity was determined following the method as previously described, using the colorimetric detection system (ACE kit-WST, Dojindo Inc., Kumamoto, Japan). The assay procedure was consistent with the technical manual provided by the assay kit. Briefly, 20 µL of sample solution was added to a sample well, and 20 µL of deionized water was added to blank 1 and blank 2 wells. 20 µL of substrate buffer was added to each well. 20 µL of deionized water was added to blank 2 well, while 20 µL of enzyme working solution was added to each sample and blank 1 wells. All wells containing above solutions were incubated at 37 °C for 1 h. Afterwards, 200 µL of the indicator working solution was added to each well with further incubation for 10 min. Then, the absorbance was recorded at 450 nm using a microplate reader (Cytation 3, BioTek Instruments, Inc., Winooski, VT, USA). The ACE inhibitory activity was calculated using the equation (1) ACE inhibitory activity (inhibition rate %) = Ablank1− Asample/Ablank1− Ablank2 × 100% where Ablank1 represented positive control (without ACE inhibition); Ablank2 was the absorbance of the reagent blank, while Asample was the absorbance of the sample. The concentration inducing 50% inhibition (IC50) of peptides and some samples were also determined with non-linear regression.

T1 sequence (P12821 30-1306, species assumed): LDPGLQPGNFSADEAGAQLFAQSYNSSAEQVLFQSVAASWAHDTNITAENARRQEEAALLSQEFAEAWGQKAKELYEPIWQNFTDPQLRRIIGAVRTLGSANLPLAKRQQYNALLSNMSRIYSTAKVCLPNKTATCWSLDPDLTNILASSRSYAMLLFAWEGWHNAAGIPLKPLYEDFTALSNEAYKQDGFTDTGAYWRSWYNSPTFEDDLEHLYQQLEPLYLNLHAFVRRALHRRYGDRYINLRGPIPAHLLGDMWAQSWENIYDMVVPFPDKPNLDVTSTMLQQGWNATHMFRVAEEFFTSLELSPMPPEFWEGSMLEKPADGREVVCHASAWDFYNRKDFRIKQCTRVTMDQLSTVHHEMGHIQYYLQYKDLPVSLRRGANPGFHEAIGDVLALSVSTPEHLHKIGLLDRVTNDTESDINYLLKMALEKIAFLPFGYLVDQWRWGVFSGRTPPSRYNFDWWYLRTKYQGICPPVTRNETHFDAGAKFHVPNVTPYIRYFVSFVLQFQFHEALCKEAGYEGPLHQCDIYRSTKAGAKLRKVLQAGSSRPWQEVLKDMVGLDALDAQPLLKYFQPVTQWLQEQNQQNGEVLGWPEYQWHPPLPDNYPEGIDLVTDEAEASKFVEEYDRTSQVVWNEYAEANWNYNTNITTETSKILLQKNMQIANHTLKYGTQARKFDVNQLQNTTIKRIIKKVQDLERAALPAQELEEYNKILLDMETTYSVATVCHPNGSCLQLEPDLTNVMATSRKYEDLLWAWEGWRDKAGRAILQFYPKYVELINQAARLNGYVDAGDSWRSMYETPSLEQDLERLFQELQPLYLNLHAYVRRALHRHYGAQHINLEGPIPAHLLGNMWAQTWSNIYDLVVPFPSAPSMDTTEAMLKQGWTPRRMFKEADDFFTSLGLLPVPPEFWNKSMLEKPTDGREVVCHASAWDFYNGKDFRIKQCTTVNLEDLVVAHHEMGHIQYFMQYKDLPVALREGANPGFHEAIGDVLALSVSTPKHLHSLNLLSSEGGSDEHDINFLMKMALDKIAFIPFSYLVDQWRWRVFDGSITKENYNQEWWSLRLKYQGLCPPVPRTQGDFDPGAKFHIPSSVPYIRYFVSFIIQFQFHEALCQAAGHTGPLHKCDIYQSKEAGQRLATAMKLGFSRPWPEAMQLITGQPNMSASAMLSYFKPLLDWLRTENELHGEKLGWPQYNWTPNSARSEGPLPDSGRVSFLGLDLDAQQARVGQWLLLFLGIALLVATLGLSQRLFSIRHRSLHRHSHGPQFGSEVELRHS

`CC(C)[C@H](NC(=O)[C@H](C)N)C(=O)N[C@@H](CCC(N)=O)C(=O)O` [AVQ] (H-Ala-Val-Gln-OH): the 50% inhibitory concentration (IC50) (commonly the concentration at which inhibition is half-maximal) stood at 181 ± 6.17 µM.
The figure for `CC(C)C[C@H](NC(=O)[C@H](Cc1ccc(O)cc1)NC(=O)[C@H](C)N)C(=O)N[C@@H](CCC(N)=O)C(=O)O` [AYLQ] (H-AYLQ-OH) is 229 ± 9.63 µM.
Consider `CC(C)C[C@H](NC(=O)[C@H](CCC(N)=O)NC(=O)[C@@H](N)CC(N)=O)C(=O)O` [NQL] (H-Asn-Gln-Leu-OH), for which the half-inhibitory concentration (IC50) is 705 ± 16.1 µM.
With `CC(C)C[C@H](NC(=O)[C@H](CO)NC(=O)[C@@H]1CCCN1C(=O)[C@H](CC(C)C)NC(=O)[C@@H](N)C(C)C)C(=O)N[C@@H](CC(N)=O)C(=O)O` [VLPSLN] (H-VLPSLN-OH) the figure was 1246 ± 9.92 µM; with `CC(C)C[C@H](NC(=O)[C@@H](NC(=O)[C@@H]1CCCN1C(=O)[C@H](CC(C)C)NC(=O)[C@@H](N)C(C)C)C(C)C)C(=O)N[C@@H](CO)C(=O)O` [VLPVLS] (H-VLPVLS-OH), 248 ± 7.15 µM; with `NC(=O)CC[C@H](NC(=O)[C@@H]1CCCN1C(=O)[C@@H](N)Cc1ccc(O)cc1)C(=O)O` [YPQ] (H-Tyr-Pro-Gln-OH), 220 ± 9.56 µM.

(Values after PMC6770510, “In Vitro Production and Identification of Angiotensin Converting Enzyme (ACE) Inhibitory Peptides Derived from Distilled Spent Grain Prolamin Isolate” (Foods, 2019).)
